Laboratory results as given in EP0603240B1, “SAFENING HERBICIDAL PYRAZOLYLSULFONYLUREAS” (priority 1991, dated 1993).

Legend:
Type in all cases: in vivo
[1] = tested on: corn; experiment: Example 26, field trials, preemergence surface application (PRE): corn growth reduction; conditions: no antidote
Description: In order to better understand and to confirm the results of greenhouse tests with herbicidal compositions comprising representative compounds according to Formula I and an antidote with and without a co-herbicide, a large number of field trials were conducted. This example provides a summary of those field trials.
The primary purpose of the field trials summarized herein was to ascertain the amount of corn injury caused by a compound according to Formula I. viz. Herbicide No. 1, with and without a co-herbicide of the α-chloroacetanilide class, viz., Herbicide Nos. 6 and 7, and the extent that any corn injury could be safened by a dichloroacetamide antidotal compound, viz., Antidote No. 15.
Corn injury is generally expressed, in broad terms, in stand reduction, growth reduction, malformed plants and other more specific effects. For purposes of the summary here, the results of a plurality of field trials are expressed in terms of growth reduction (GR), i.e., a significant reduction in plant height of the corn stand. A common criteria for commercially-acceptable corn injury is an amount equal to or less than 10% malformed plants or stand reduction and for present reporting purposes, no greater than about 15% growth reduction. The corn injury/safening described for these field trials refers to commercially-unacceptable to commercially-acceptable performance.
In the field trials from a wide distribution of trial locations, soil types (all having in excess of 2% organic matter), climatic effects, etc., the test chemicals were applied as tank mixes in various modes of application, i.e., pre-plant incorporation (PPI) and preemergence surface application (PRE). Test plots were small plots with three replications in a randomized complete block design. Observations were made and recorded in a period of from 31-50 days after treatment.

[2] = tested on: barnyardgrass (Echinochloa crusgalli); experiment: Example 3, Procedure I: antidotes against Herbicide No. 1; conditions: no antidote
In short: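 Corn seeded in silt loam in the greenhouse, covered with a soil layer into which herbicide and antidote (each in acetone) were incorporated, with untreated and herbicide-only controls; sub-irrigated. Herbicide No. 1 at 4.48 down to 0.56 kg/ha. Barnyardgrass response scored as percent injury, with antidote efficacy as the injury difference without vs with antidote.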

[3] = tested on: corn; experiment: Example 10, Procedure II: Herbicide No. 1 + propachlor (No. 5) with antidotes; conditions: no antidote
Description: (§1) Containers were filled and compacted with a fumigated silt loam top soil to a depth of about 1.3 cm from the top of the container. A first container was designated as an untreated control, a second container was designated as a herbicide control, and a third container was designated as a herbicide + antidote test container. Each of the containers was seeded with a crop species. A measured amount of herbicide dispersed or dissolved in acetone was applied to a measured quantity of soil. To this same quantity of soil treated with herbicide, there was added a measured amount of antidote dispersed or dissolved in acetone. The quantity of soil treated with the herbicide and antidote was thoroughly mixed to incorporate the herbicide and antidote in the soil uniformly. The seed bed in the third container of soil was covered with the soil treated with the herbicide and antidote and the container was leveled. For each test series, the seed beds of the first and second containers were likewise covered by soil layers. the cover layer of the first container was not treated with herbicide or antidote.
(§2) The containers were then placed on a bench in a greenhouse and sub-irrigated as required for the duration of the test. […] Plant response is measured in terms of percent injury. Antidote efficacy is indicated as the difference in plant injury by the herbicide(s) without the antidote and with the antidote.
This procedure is the same as Procedure I, but modified in the manner that after incorporation of the chemicals (herbicide and antidote) the containers with the covered seedbed were treated with an initial overhead irrigation equivalent to 0.6 cm rainfall, then subsequently sub-irrigated as required on greenhouse benches.
In this test, the safening effect of various antidotes on the herbicidal combination of Herbicide No. 1 and another α-chloroacetanilide co-herbicide, propachlor, (Herbicide No. 5) was investigated. Propachlor is the active ingredient in the commercial herbicide RAMROD®. Procedure II was also used in this test as in the preceding example.

[4] = tested on: corn; experiment: Example 12, Procedure II: Herbicide No. 1 + acetochlor (No. 6) with thirteen antidotes; conditions: for % Injury Corn: no antidote
In short: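 Herbicide and antidote in acetone were mixed into silt loam used to cover the corn seed bed, alongside untreated and herbicide-only controls. After incorporation, an overhead irrigation equal to 0.6 cm rainfall was given, then sub-irrigation in a greenhouse. Injury was scored as percent; safening is the injury difference without versus with antidote.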

[5] = tested on: corn; experiment: Example 4, Procedure I: Antidote Nos. 15 and 16 against Herbicide No. 1; conditions: no antidote, average of two replicates
Description: as §1, §2
This example describes tests with Antidote Nos. 15 and 16 to safen Herbicide No. 1 according to Procedure I using corn and the weeds barnyardgrass and velvetleaf as the test plants.

[6] = Herbicide No.1 0.14 kg/ha alone
[7] = Herbicide No.1 0.56 kg/ha alone

COC(=O)c1c(Cl)nn(C)c1S(=O)(=O)NC(=O)Nc1nc(OC)cc(OC)n1 [Herbicide No. 1]
corn growth reduction (GR) ([1]; Herbicide No. 1 0.07 kg/ha + acetochlor): 9.8% | corn growth reduction (GR) ([1]; Herbicide No. 1 0.14 kg/ha + acetochlor): 13.4% | corn growth reduction (GR) ([1]; Herbicide No. 1 0.28 kg/ha + acetochlor): 20.3% | % Injury BYG ([2]; Herb. No. 1 0.56 kg/ha): 50% | % Injury BYG ([2]; Herb. No. 1 1.12 kg/ha): 70% | % Injury BYG ([2]; Herb. No. 1 2.24 kg/ha): 70% | % Injury BYG ([2]; Herb. No. 1 4.48 kg/ha): 75% | % Injury Corn [3, 6]: 20% | % Injury Corn [3, 7]: 30% | combined corn injury ([4]; Herbicide No. 1 0.56 kg/ha + Herbicide No. 6 2.24 kg/ha, without an antidote): 45% | injury to corn ([4]; Herbicide No. 1 0.56 kg/ha, without an antidote): 20% | % Injury Corn [4, 6]: 15% | % Injury Corn [4, 7]: 20% | % Injury Corn ([5]; Herb. No. 1 4.48 kg/ha): 85% | % Injury Corn ([5]; Herb. No. 1 6.72 kg/ha): 90%
